# Source: patent US20240238241A1, “PHARMACEUTICAL COMPOSITION FOR TREATMENT OF PANCREATIC CANCER AND BILE DUCT CANCER” (JAPAN SCIENCE AND TECHNOLOGY AGENCY, priority 2021, published 2024)
# Tests used:
# ZIC5 protein [1] = molecular target: T1, ZIC5 protein (Homo sapiens, UniProt Q96T25); assay: secondary screening: ZIC5 protein quantified by anti-ZIC5 immunostaining and imaging cytometer in A375 cells overexpressing ZIC5; conditions: A-375, read-out: ZIC5 Protein Amount (Relative Value);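 note: compounds added at 0.1, 1, 5 or 10 µM to A375 cells overexpressing ZIC5 without a fusion tag, cells fixed the next day, ND means cells died before measurement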
# T1 sequence (Q96T25 1-639): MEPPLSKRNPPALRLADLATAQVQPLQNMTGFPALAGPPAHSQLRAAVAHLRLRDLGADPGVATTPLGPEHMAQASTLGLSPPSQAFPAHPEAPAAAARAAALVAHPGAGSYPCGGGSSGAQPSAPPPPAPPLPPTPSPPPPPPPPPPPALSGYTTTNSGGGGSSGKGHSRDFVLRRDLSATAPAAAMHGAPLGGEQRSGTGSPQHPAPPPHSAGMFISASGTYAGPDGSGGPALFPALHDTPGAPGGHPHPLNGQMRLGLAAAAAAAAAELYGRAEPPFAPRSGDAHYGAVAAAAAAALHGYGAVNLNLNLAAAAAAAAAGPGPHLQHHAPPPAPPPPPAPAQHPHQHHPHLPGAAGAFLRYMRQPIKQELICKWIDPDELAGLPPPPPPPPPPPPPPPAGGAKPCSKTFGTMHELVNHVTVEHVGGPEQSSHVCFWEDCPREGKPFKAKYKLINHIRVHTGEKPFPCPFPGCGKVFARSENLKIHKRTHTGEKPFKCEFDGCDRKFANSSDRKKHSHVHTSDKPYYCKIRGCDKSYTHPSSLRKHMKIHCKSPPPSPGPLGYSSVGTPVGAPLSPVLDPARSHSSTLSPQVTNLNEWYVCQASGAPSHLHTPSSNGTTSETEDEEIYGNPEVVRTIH
# Experimental: In the secondary screening, A375 cells overexpressing the ZIC5 protein (without a fusion protein) were subjected to the addition of the primary hit compound to a final concentration of 0.1 μM, 1 μM, 5 μM, or 10 μM and cultured, and then the cells were fixed on the next day. The fixed cells were subjected to staining by using an anti-ZIC5 antibody (clone: GTX104840) and an Alexa Fluor 568-anti-rabbit IgG antibody as a secondary antibody, and the amount of the ZIC5 protein was quantified using the imaging cytometer.
# ZIC5 protein [2] = molecular target: T1, ZIC5 protein; assay: Western blotting of ZIC5 protein/GAPDH in A375 cells (none overexpressed); format: cell-based; conditions: 0, 0.1, 0.5 or 1 μM; 48 hours
# Experimental: Regarding the compound (T-1) and the compound (T-2), the effect on the amount of the intracellular ZIC5 protein was investigated according to the Western blotting method. Specifically, A375 cells (none was overexpressed therein) were subjected to the addition of the compound (T-1) or the compound (T-2) so that the concentration thereof was 0, 0.1, 0.5, or 1 μM, and the cells were cultured for 48 hours. The cells after being cultured were recovered, and Western blotting was carried out using an anti-ZIC5 antibody and an anti-GAPDH antibody. The amount of each protein was quantified from a density of a band in the Western blotting image.
# [3] = tested on: ZIC5 non-expressing normal human melanocyte cell (NHM); assay: apoptosis induction rate after compound treatment; format: cell-based; set-up: dose or concentration left out as unconfirmed; conditions: 48 hours
# Experimental: (§1) The apoptosis induction rate (%) was measured as follows. First, a CellEvent Caspase-3/7 Green Detection Reagent (manufactured by Invitrogen Corporation) and Hoechst 33342 were added to each kind of cell, followed by incubation for 40 minutes. Next, the staining state of the cells after incubation was analyzed by using a DAPI filter and an FITC filter of an imaging cytometer “IN Cell Analyzer 2000” (manufactured by GE Healthcare). The proportion (%) of Caspase-3/7 active cells (CellEvent Caspase-3/7 Green Detection Reagent positive cells) with respect to all DAPI-stained cells (DAPI positive cells) was determined by “IN Cell Analyzer Workstation 3.7” (manufactured by GE Healthcare), and this was defined as the apoptosis induction rate (%). The statistical difference was determined according to the Tukey's multiple comparison test (n=3, *p<0.05, **p<0.01, ***p<0.001).
# (§2) A total of 7 kinds of cells of 2 kinds of vemurafenib-resistant lines derived from human melanoma (an A375vemR line and an HT144vemR line), 2 kinds of ZIC5 high-expressing melanoma cell lines (an A375 line and an HT144 line), 2 kinds of ZIC5 low-expressing melanoma cell lines (a Colo829 line and an SKmel28 line), and a ZIC5 non-expressing normal human melanocyte cell (NHM) were treated with the compound (T-1) or compound (T-2), and regarding the cells that had been subsequently cultured for 48 hours, the apoptosis induction rate (%) was determined in the same manner as in Example 1. […]
# [4] = tested on: vemurafenib-resistant lines derived from human melanoma (A375vemR line, HT144vemR line); assay: apoptosis induction rate after compound treatment; format: cell-based; set-up: dose or concentration left out as unconfirmed; conditions: 48 hours
# Experimental: as §1, §2
# [5] = tested on: ZIC5 high-expressing melanoma cell lines (A375 line, HT144 line); assay: apoptosis induction rate after compound treatment; format: cell-based, human; set-up: dose or concentration left out as unconfirmed; conditions: 48 hours
# Experimental: as §1, §2
# [6] = tested on: ZIC5 low-expressing melanoma cell lines (Colo829 line, SKmel28 line); assay: apoptosis induction rate after compound treatment; format: cell-based, human; set-up: dose or concentration left out as unconfirmed; conditions: 48 hours
# Experimental: as §1, §2
# A375 cells = assay: relative cell number after compound then BRAF inhibitor vemurafenib; format: cell-based, human; conditions: 0.5 μM T-1 or 50 nM T-2 for 48 hours, then vemurafenib 0.1 μM for 72 hours
# Experimental: Specifically, 0.5 μM of the compound (T-1) or 50 nM of the compound (T-2) was added to A375 cells, culturing was carried out for 48 hours, and then vemurafenib was added thereto a concentration of 0.1 μM, and culturing was further carried out for 72 hours. After the culturing, cell nuclei were stained with Hoechst to count the number of cells. The number of cells of the A375 cells cultured without adding any compound was set to 1, and the relative cell number of each kind of cell was determined.
# A375 melanoma cells = assay: relative cell number in cells transfected with ZIC5 expression plasmid (Z5) or empty vector (C); format: cell-based, human; conditions: 0.1 or 0.5 μM T-1, 10 nM T-2; 4 days; Z5 versus empty vector
# Experimental: Specifically, a ZIC5 expression plasmid (Z5) or an empty vector (C) was introduced into A375 melanoma cells by transfection, and cells into which each of the plasmids had been introduced were selected. Next, these cells were subjected to the addition of 0.1 μM or 0.5 μM of the compound (T-1) or 10 nM of the compound (T-2) and cultured for 4 days. After the culturing, cell nuclei were stained with Hoechst, and the number of cells was counted with an imaging cytometer “IN Cell Analyzer 2000”. The number of cells, into which an empty vector had been introduced and which had not been subjected to the compound treatment, was set to 1, and the relative cell number of each kind of cell was determined. […] In the figure, “C” is for cells into which the empty vector has been introduced, and “Z5” is for cells into which the ZIC5 expression plasmid has been introduced.
# [7] = tested on: pancreatic cancer cell lines (AsPC-1, Panc-1, MiaPaca-2) and bile duct cancer cell line (RBE); assay: apoptosis induction rate with gemcitabine after siRNA transfection; format: cell-based; conditions: gemcitabine 0.1 μM, 48 hours
# Experimental: as §1
# Next, each kind of cell was introduced by transfection with siNeg and siZIC5 listed in Table 2 and cultured for 24 hours. Then, gemcitabine, which is a standard therapeutic drug for pancreatic cancer and bile duct cancer, was added thereto, the culture was further carried out for 48 hours, and then the apoptosis induction rate (%) was investigated.
SMILES,remaining activity at 0.1 µM (ZIC5 protein [1]),remaining activity at 1 µM (ZIC5 protein [1]),remaining activity at 5 µM (ZIC5 protein [1]),further results
C=C(C)[C@H]1O[C@H]2CC[C@@]3(C)[C@@](O)(CC[C@H]4C5OC(C)(C)[C@H]6C[C@@H]7C(=C)Cc8c(Cl)cc9[nH]c(c5c9c8[C@@]76O)[C@@]43C)[C@]23O[C@@H]3[C@H]1O (stereo partly drawn) [Compound T-4],111%,96%,75.4%,–
CC(=O)O[C@H]1C[C@]2(O)[C@@H]3CC[C@@H]4C[C@@H](O)CC[C@]4(C)[C@H]3CC[C@]2(C)[C@H]1c1ccc(=O)oc1 [Compound T-7],103%,76.4%,–,–
CCCCCCCCCCCCC/C=C/[C@H](O)[C@H](N)CO [Compound T-5],108%,118%,62.6%,–
C[C@@H]1O[C@@H](O[C@@H]2C=C3CC[C@@H]4[C@H](CC[C@]5(C)[C@@H](c6ccc(=O)oc6)CC[C@]45O)[C@@]3(C)CC2)[C@H](O)[C@H](O)[C@H]1O [Compound T-10],70.2%,42.1%,50%,–
COc1cc(O)c2c(c1)/C=C/C[C@H](O)[C@H](O)C(=O)/C=C\C[C@H](C)OC2=O [Compound T-2],89.6%,83.1%,72.8%,relative amount of the ZIC5 protein ([amount of ZIC5 protein]/[amount of GAPDH protein]) (ZIC5 protein [2]): reduced depending on the concentrations; apoptosis induction [3]: did not induce apoptosis; apoptosis induction [4]: induced apoptosis; apoptosis induction [5]: induced apoptosis; apoptosis induction ([6]; Colo829 line): induced apoptosis; apoptosis induction ([6]; SKmel28 line): did not induce apoptosis; relative cell number in combination with vemurafenib (A375 cells): synergistically reduce the number of cells; apoptosis induction and suppression of cancer cell proliferation in ZIC5-overexpressing cells (Z5) (A375 melanoma cells): restored; remaining activity at 10 µM (ZIC5 protein [1]): 70.8%
C=C1C(=O)O[C@H]2C1CC/C(C)=C\CC[C@@]1(C)O[C@H]21 (stereo partly drawn) [Compound T-3],89.8%,98.2%,55.3%,–
Nc1ccn([C@@H]2O[C@H](CO)[C@@H](O)C2(F)F)c(=O)n1 [gemcitabine],–,–,–,apoptosis induction [7]: apoptosis was induced
C[C@@H]1O[C@@H](O[C@H]2C[C@@H](O)[C@]3(CO)[C@H]4[C@H](O)C[C@]5(C)[C@@H](C6=CC(=O)OC6)CC[C@]5(O)[C@@H]4CC[C@]3(O)C2)[C@H](O)[C@H](O)[C@H]1O [Compound T-11],90.6%,67.8%,–,–
C[C@@H]1O[C@@H](O[C@H]2CC[C@]3(C=O)[C@H]4CC[C@]5(C)[C@@H](c6ccc(=O)oc6)CC[C@]5(O)[C@@H]4CC[C@]3(O)C2)[C@H](O)[C@H](O)[C@H]1O[C@@H]1O[C@H](CO)[C@@H](O)[C@H](O)[C@H]1O [Compound T-12],76.8%,72.5%,57.1%,–
O=C1C=C2C(=CCOC2O)O1 (stereo not drawn) [Compound T-1],83.4%,76.7%,–,relative amount of the ZIC5 protein ([amount of ZIC5 protein]/[amount of GAPDH protein]) (ZIC5 protein [2]): reduced depending on the concentrations; apoptosis induction [3]: did not induce apoptosis; apoptosis induction [4]: induced apoptosis; apoptosis induction [5]: induced apoptosis; apoptosis induction ([6]; both ZIC5 low-expressing lines): did not induce apoptosis; relative cell number in combination with vemurafenib (A375 cells): synergistically reduce the number of cells; apoptosis induction and suppression of cancer cell proliferation in ZIC5-overexpressing cells (Z5) (A375 melanoma cells): restored
CC(=O)O[C@H]1[C@H]2O[C@@]23[C@@H]2CC[C@]4(O)C[C@@H](O)CC[C@]4(C)[C@H]2CC[C@]3(C)[C@H]1c1ccc(=O)oc1 [Compound T-8],88.2%,90.8%,70.5%,remaining activity at 10 µM (ZIC5 protein [1]): 44.7%
